Results: patent US9029384B2, “Phosphatidylinositol 3-kinase inhibitors” (Gilead Calistoga LLC, priority 2012, dated 2015)
Read-outs that look alike come from different tables or passages of the source.

Key:
[1] = target: T1, PI3Kδ (Homo sapiens, UniProt O00329); test: Enzymatic activity of PI3K isoforms, TR-FRET assay (PIP3 formation); assay type: biochemical; details: read-out: IC50
T1 construct: made in house
From the text: Enzymatic Activity of PI3K Isoforms
The TR-FRET assay was used to monitor formation of the product 3,4,5-inositol triphosphate molecule (PIP3) as it competed with fluorescently labeled PIP3 for binding to the GRP-1 pleckstrin homology domain protein. An increase in […] product results in a decrease in TR-FRET signal as the labeled fluorophore is displaced from the GRP-1 protein binding site.
Class I PI3K isoforms were expressed and purified as heterodimeric recombinant proteins. All assay reagents and buffers for the TR-FRET assay were purchased from Millipore. […] After an assay reaction time of 30 minutes at 25° C., reactions were terminated with a final concentration of 10 mM EDTA, 10 nM labeled-PIP3, and 35 nM Europium labeled GRP-1 detector protein before reading TR-FRET on an Envision plate reader (Ex: 340 nm; Em: 615/665 nm; 100 μs delay and 500 μs read window).
Data are normalized based on a positive (1 uM wortmanin) and negative (DMSO) controls. The α, β, δ, and γ IC50 values were calculated from the fit of the dose-response curves to a four-parameter equation. IC50 are reported in units of nM.
IC50 values were obtained for all PI3K isoforms (α, β, δ, and γ), and Table 2 summarizes the IC50 data collected for PI3Kδ in this Example B1.

[2] = test system: basophils; test: Basophil activation in human whole blood (Flow2 CAST kit, CD63 positive cells); assay type: cell-based
Procedure: Effect on basophil activation was measured in human whole blood using the Flow2 CAST® kit (Buhlmann Laboratories AG, Baselstrasse, Switzerland) following the protocol provided by the manufacturer with minor modifications. Human whole blood was collected into K2-EDTA venipuncture tubes. Whole blood samples were treated with either DMSO (0.3% final) or a serial dilution of compounds in DMSO for 60 minutes at 37° C. Basophils were then activated either with anti-FcεRI mAb or with fMLP. To activate basophils using the anti-FcεRI mAb; 50 μl of whole blood was mixed with 110 μl of stimulation buffer (B-BAT-STB) and 20 μl of anti-FcεRI (B-BAT-STCON). To activate basophils with fMLP; 50 μl of whole blood was mixed with 80 μl of stimulation buffer (B-BAT-STB) and 50 μl of fMLP (B-CCR-FMLP). Stimulation buffer was used as a negative control. 20 μl of the staining reagent (combination of anti-human CD63-FITC and anti-human CCR3-PE mAbs) was then added to each tube. […] Subsequently, erythrocytes were lysed and fixed by the addition of 2 ml of lysing solution (B-BAT-LYR) for 10 min at room temperature. Cells were pelleted by centrifugation at 1200 rpm for 10 min at room temperature in a swing-out rotor. Supernatant was aspirated and cell pellet resuspended in 400 μl of wash buffer. Flow cytometric analysis of the basophil activation was performed on a FC500MPL flow cytometer (Beckman Coulter Inc., Fullerton, Calif.). CCR3-staining and side scatter were applied to gate at least 200 basophils that expressed a high density of CCR3. The percent CD63 positive cells within the gated basophil population were determined in different treatment groups and normalized to the vehicle control (0.3% DMSO) with anti-FcεRI mAb of fMLP stimulus as 100%. Final compound concentration was adjusted to correct for dilution effect of added reagents. The EC50 values were calculated from the analysis of the dose-response curves to a four-parameter equation. All EC50 values represent geometric mean values and are reported in units of nM.

[3] = Hepatocyte stability, 0.01% final DMSO, 1 μM substrate (t1/2^b); assay type: in vitro ADME; details: human, hepatocytes, TA with 0.01% final DMSO
Procedure: Alternatively, assay reagents and/or conditions can be modified in determining the inhibitory activities to PI3K isomers. In additional studies, similar assay using TA and 0.01% final DMSO concentration were incubated with 1 million hepatocytes/mL at 1 μM substrate in duplicate. The incubation was carried out at 37° C. with 5% CO2 and saturating humidity.

[4] = PI3Kδ, TR-FRET, 2×Km ATP, 10 μM PIP2
[5] = basophils activated with anti-FcεRI mAb or fMLP, geometric mean
[6] = 1 μM substrate, samples at 0, 1, 3, 6 hours, read-out: human hepatocyte t½^b
[7] = Homo sapiens, basophils activated with anti-FcεRI mAb or fMLP, geometric mean

T1 sequence (O00329 whole entry, canonical isoform): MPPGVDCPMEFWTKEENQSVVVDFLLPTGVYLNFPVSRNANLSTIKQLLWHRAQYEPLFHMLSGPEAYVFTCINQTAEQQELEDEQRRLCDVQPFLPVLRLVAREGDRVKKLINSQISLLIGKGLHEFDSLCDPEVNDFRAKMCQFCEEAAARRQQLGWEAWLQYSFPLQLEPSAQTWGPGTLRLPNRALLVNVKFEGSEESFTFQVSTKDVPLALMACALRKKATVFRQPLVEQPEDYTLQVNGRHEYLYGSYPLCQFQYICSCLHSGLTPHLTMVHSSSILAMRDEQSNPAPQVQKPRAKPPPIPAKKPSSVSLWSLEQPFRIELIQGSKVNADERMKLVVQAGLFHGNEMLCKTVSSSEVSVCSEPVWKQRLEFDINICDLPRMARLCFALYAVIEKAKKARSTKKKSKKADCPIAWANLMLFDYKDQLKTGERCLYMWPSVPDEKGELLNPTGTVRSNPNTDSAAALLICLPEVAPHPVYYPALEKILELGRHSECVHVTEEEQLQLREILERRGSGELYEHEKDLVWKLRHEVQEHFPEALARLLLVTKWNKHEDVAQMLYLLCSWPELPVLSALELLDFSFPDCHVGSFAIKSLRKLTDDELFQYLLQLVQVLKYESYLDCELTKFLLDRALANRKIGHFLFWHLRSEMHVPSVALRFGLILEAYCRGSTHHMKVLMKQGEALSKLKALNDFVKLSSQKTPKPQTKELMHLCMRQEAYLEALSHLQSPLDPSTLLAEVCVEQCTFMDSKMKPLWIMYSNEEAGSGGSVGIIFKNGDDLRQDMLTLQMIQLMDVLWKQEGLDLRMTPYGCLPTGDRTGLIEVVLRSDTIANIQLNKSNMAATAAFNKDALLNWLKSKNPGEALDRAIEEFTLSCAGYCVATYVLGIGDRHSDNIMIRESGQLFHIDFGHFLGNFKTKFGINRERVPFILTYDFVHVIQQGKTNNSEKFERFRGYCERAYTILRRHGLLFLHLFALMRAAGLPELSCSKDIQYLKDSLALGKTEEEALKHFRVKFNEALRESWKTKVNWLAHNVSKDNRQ
T1 sequence (P27986 whole entry partner, canonical isoform): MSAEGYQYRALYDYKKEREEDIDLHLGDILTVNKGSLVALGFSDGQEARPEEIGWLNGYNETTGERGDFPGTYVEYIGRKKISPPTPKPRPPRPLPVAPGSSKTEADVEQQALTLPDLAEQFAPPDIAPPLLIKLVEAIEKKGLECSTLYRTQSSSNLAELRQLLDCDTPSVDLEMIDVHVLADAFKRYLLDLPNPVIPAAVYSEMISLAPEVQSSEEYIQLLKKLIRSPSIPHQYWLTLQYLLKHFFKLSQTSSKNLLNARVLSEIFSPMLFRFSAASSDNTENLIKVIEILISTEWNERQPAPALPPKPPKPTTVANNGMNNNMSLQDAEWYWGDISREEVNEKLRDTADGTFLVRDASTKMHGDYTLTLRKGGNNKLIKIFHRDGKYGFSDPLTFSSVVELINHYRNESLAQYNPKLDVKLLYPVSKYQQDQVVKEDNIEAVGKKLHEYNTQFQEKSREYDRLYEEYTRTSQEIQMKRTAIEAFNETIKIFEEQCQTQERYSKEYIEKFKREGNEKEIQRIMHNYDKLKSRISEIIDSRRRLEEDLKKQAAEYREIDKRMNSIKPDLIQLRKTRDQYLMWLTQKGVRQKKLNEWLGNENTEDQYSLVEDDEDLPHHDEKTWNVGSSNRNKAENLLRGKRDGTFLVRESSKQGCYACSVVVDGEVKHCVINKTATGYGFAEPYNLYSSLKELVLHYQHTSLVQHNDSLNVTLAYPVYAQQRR

SMILES	IC50 [1, 4] [nM]	EC50 [2, 5] [nM]	EC50 [2, 7] [nM]	further results
Cc1ccc(C(F)F)cc1-n1c(C(C)Nc2nc(N)nc(N)c2C#N)nc2cccc(Cl)c2c1=O (single isomer, unassigned) [Compound 188a-2]	< 1	< 1		half-life at 1 μM [3, 6]: 1 to 3 h
CC(Nc1nc(N)nc(N)c1C#N)c1nc2c(F)ccc(F)c2c(=O)n1-c1cccc(C#N)c1 (single isomer, unassigned) [Compound 149a]	10 to 50		1 to 10	half-life at 1 μM [3, 6]: 6 to 10 h
COCC(Nc1nc(N)nc(N)c1C#N)c1nc2cccc(Cl)c2c(=O)n1-c1cc(F)cc(F)c1 (single isomer, unassigned) [Compound 135a]	1 to 10		1 to 10	half-life at 1 μM [3, 6]: 1 to 3 h
CCC(Nc1nc(N)nc(N)c1C#N)c1nc2cccc(F)c2c(=O)n1-c1cccc(F)c1 (single isomer, unassigned) [Compound 179a]	1 to 10		1 to 10	half-life at 1 μM [3, 6]: 6 to 10 h
CC(Nc1nc(N)nc(N)c1C#N)c1nc2cccc(Cl)c2c(=O)n1-c1cccc(Cl)c1 (single isomer, unassigned) [Compound 8a]	< 1		1 to 10	half-life at 1 μM [3, 6]: 3 to 6 h
CC(Nc1nc(N)nc(N)c1C#N)c1nc2ccccc2c(=O)n1-c1cc(F)cc(F)c1 (single isomer, unassigned) [Compound 28a]	10 to 50		1 to 10	half-life at 1 μM [3, 6]: > 10 h
CC(Nc1nc(N)nc(N)c1Cl)c1nc2c(F)ccc(Cl)c2c(=O)n1-c1ccccc1 (single isomer, unassigned) [Compound 127a]	1 to 10		1 to 10	half-life at 1 μM [3, 6]: 1 to 3 h
COc1cccc(-n2c(C(C)Nc3nc(N)nc(N)c3C#N)nc3cccc(Cl)c3c2=O)c1C (single isomer, unassigned) [Compound 109a-2]	< 1		1 to 10	half-life at 1 μM [3, 6]: 1 to 3 h
CCC(Nc1nc(N)nc(N)c1C#N)c1nc2ccc(F)cc2c(=O)n1-c1cccc(F)c1 (single isomer, unassigned) [Compound 178a]	1 to 10		1 to 10	half-life at 1 μM [3, 6]: > 10 h
C[C@H](Nc1ncnc(N)c1C#N)c1nc2cccc(F)c2c(=O)n1-c1cccc(F)c1 [Compound V, reference compound]				EC50 ([2]; Homo sapiens, basophil activation): > 4 nM; half-life at 1 μM ([3]; human hepatocytes, read-out: t1/2^b): < 1 h
CC(Nc1nc(N)nc(N)c1C#N)c1nc2cccc(C(N)=O)c2c(=O)n1-c1ccccc1 (single isomer, unassigned) [Compound 92a]	1 to 10		> 50	
COc1cc(-n2c(C(C)Nc3nc(N)nc(N)c3C#N)nc3cccc(Cl)c3c2=O)ccc1F (single isomer, unassigned) [Compound 186a]	1 to 10		10 to 50	
CC(Nc1nc(N)nc(N)c1C#N)c1nc2c(F)ccc(F)c2c(=O)n1-c1ccccc1 (single isomer, unassigned) [Compound 59a]	< 1		1 to 10	
Cc1c(F)cc(F)cc1-n1c(C(C)Nc2nc(N)nc(N)c2C#N)nc2cccc(Cl)c2c1=O (single isomer, unassigned) [Compound 200a-2]	10 to 50	1 to 10		
CC[C@H](C)[C@H](Nc1nc(N)nc(N)c1C#N)c1nc2cccc(Cl)c2c(=O)n1-c1cc(F)cc(F)c1 [Compound 164a, 2,4-diamino-6-(((1S,2S)-1-(5-chloro-3-(3,5-difluorophenyl)-4-oxo-3,4-dihydroquinazolin-2-yl)-2-methylbutyl)amino)pyrimidine-5-carbonitrile]	1 to 10		> 50	
CC(Nc1nc(N)nc(N)c1C#N)c1nc2cccc(C#N)c2c(=O)n1-c1ccccc1 (single isomer, unassigned) [Compound 7a]	1 to 10		< 1	
CC(Nc1nc(N)nc(N)c1C#N)c1nc2cccc(S(C)(=O)=O)c2c(=O)n1-c1c(F)cccc1F (single isomer, unassigned) [Compound 146a]	1 to 10		> 50	

SMILES	IC50 [1, 4] [nM]	EC50 [2, 5] [nM]	EC50 [2, 7] [nM]	further results
CC(Nc1nc(N)nc(N)c1C#N)c1nc2ccc(F)cc2c(=O)n1-c1ccccc1 (single isomer, unassigned) [Compound 9a]	1 to 10		1 to 10	
Cc1c(C(F)F)cccc1-n1c(C(C)Nc2nc(N)nc(N)c2C#N)nc2cccc(Cl)c2c1=O (single isomer, unassigned) [Compound 189a-1]	10 to 50	> 50		
CC(Nc1nc(N)nc(N)c1C#N)c1cc2cccc(Cl)c2c(=O)n1-c1ccccc1 (single isomer, unassigned) [Compound 196a]		< 1		IC50 [1]: < 1 nM
Cc1c(F)ccc(-n2c(C(C)Nc3nc(N)nc(N)c3C#N)nc3cccc(Cl)c3c2=O)c1C (single isomer, unassigned) [Compound 203a-1]	1 to 10	> 50		
CC(Nc1nc(N)nc(N)c1Cl)c1cc2cccc(Cl)c2c(=O)n1-c1ccccc1 (single isomer, unassigned) [Compound 195a]		1 to 10		IC50 [1]: < 1 nM
Cc1ccc(F)c2nc(C(C)Nc3nc(N)nc(N)c3C#N)n(-c3cccc(C#N)c3)c(=O)c12 (single isomer, unassigned) [Compound 64a]	< 1		1 to 10	
Cc1cccc(-n2c(C(C)Nc3nc(N)nc(N)c3C#N)nc3cccc(Cl)c3c2=O)c1C (single isomer, unassigned) [Compound 202a-1]	< 1	1 to 10		
CC(C)CC(Nc1nc(N)nc(N)c1C#N)c1nc2cccc(Cl)c2c(=O)n1-c1cccc(F)c1 (single isomer, unassigned) [Compound 168a]	1 to 10		> 50	
Cc1ccc(C(F)F)cc1-n1c(C(C)Nc2nc(N)nc(N)c2C#N)nc2cccc(Cl)c2c1=O (single isomer, unassigned) [Compound 188a-1]	1 to 10	10 to 50		
CC(Nc1nc(N)nc(N)c1C#N)c1nc2cccc(S(C)(=O)=O)c2c(=O)n1-c1ccccc1F (single isomer, unassigned) [Compound 142a-1]	1 to 10		10 to 50	
Cc1cccc2nc(C(C)Nc3nc(N)nc(N)c3C#N)n(-c3ccccc3)c(=O)c12 (single isomer, unassigned) [Compound 23a]	< 1		< 1	
COc1cccc2c(=O)n(-c3ccccc3)c(C(C)Nc3nc(N)nc(N)c3C#N)nc12 (single isomer, unassigned) [Compound 156a]	> 50		10 to 50	
CC(Nc1nc(N)nc(N)c1C#N)c1nc2cccc(S(C)(=O)=O)c2c(=O)n1-c1cccc(F)c1 (single isomer, unassigned) [Compound 117a]	1 to 10		10 to 50	
CC(Nc1nc(N)nc(N)c1C#N)c1nc2cccc(Cl)c2c(=O)n1-c1cc(F)cc(C(F)(F)F)c1 (single isomer, unassigned) [Compound 45a]	1 to 10		> 50	
Cc1ccc(C)c(-n2c(C(C)Nc3nc(N)nc(N)c3C#N)nc3cccc(Cl)c3c2=O)c1 (single isomer, unassigned) [Compound 191a-2]	1 to 10	1 to 10		
Cc1cccc(-n2c(C(C)Nc3nc(N)nc(N)c3C#N)nc3cccc(Cl)c3c2=O)c1C (single isomer, unassigned) [Compound 202a-2]	10 to 50	> 50		
